Measurements from US7232835B2, “3,6-Disubstituted azabicyclo derivatives as muscarinic receptor antagonists” (Ranbaxy Laboratories Limited, priority 2002, dated 2007).
Like-named read-outs stand apart in the source and are kept apart here.

Assays:
M3 muscarinic receptor = biological target: T1, M3 muscarinic receptor (Rattus norvegicus, UniProt P08483); test: [3H]-N-methylscopolamine radioligand binding assay, rat submandibular gland membranes; design: Receptor Binding Assay Selectivity: reference not given here
T1 construct: Submandibular glands and heart were isolated and placed in ice cold homogenising buffer; from tissue; host or cells: rat submandibular gland membrane homogenate

isolated rat bladder = test: tissue or blood; type: cell-based
M2 muscarinic receptor = biological target: T2, M2 muscarinic receptor (Rattus norvegicus, UniProt P10980); test: [3H]-N-methylscopolamine radioligand binding assay, rat heart membranes
T2 construct: Submandibular glands and heart were isolated and placed in ice cold homogenising buffer; from tissue; host or cells: rat heart membrane homogenate
T2 sequence (P10980 1-466): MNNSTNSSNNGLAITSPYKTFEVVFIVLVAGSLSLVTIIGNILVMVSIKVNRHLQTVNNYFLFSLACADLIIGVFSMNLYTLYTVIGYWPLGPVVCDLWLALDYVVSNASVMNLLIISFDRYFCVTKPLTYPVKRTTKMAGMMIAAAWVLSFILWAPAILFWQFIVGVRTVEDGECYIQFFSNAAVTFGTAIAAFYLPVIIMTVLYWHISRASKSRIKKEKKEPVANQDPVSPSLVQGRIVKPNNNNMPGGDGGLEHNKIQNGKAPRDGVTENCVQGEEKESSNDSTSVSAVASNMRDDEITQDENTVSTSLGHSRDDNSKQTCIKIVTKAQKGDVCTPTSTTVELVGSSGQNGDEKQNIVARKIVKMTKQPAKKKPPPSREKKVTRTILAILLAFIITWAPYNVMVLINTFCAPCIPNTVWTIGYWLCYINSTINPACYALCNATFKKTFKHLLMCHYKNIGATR

[1] = Table III, rat submandibular gland, [3H]NMS, read-out: M3 Ki (nm)
[2] = Table II, rat bladder strips, antagonism of carbachol contraction, read-out: Functional Assay KB
[3] = Table III, rat bladder strips, antagonism of carbachol contraction, read-out: Rat Bladder pKB (converted)
[4] = Table IV, rat submandibular gland, [3H]NMS, read-out: Receptor Binding Assay (pKi) M3 (converted)
[5] = Table IV, rat heart, [3H]NMS, read-out: Receptor Binding Assay (pKi) M2 (converted)
[6] = Table III, rat submandibular gland, [3H]NMS
[7] = Table III, rat heart, [3H]NMS, read-out: M2 Ki (nm)

T1 sequence (P08483 whole entry): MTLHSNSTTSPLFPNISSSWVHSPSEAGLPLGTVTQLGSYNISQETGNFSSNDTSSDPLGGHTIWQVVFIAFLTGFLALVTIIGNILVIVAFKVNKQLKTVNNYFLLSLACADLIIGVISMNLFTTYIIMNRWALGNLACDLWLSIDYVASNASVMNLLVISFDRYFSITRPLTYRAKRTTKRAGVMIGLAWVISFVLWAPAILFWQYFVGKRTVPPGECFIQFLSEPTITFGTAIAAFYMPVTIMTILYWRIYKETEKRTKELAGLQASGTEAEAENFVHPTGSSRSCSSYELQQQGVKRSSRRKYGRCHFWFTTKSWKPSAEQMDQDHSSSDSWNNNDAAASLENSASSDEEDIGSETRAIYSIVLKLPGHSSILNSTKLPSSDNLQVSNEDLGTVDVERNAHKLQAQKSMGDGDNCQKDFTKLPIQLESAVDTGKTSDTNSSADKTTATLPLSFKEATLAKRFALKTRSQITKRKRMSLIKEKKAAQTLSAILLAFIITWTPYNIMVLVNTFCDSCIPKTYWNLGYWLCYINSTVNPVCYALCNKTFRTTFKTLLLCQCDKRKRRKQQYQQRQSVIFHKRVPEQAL

O=C(N[C@H]1[C@@H]2CN(Cc3ccccc3)C[C@@H]21)C(O)(c1ccccc1)C1CCCCC1 (stereo partly drawn) [Compound No. 22, (1α,5α,6α)-6-N-(3-azabicyclo[3.1.0]hexyl-3-benzyl)-2-cyclohexyl-2-hydroxy-2-phenyl acetamide]
Receptor Binding Assay Selectivity (M3 muscarinic receptor): 24.07 | Ki (M3 muscarinic receptor; Table II, rat submandibular gland, [3H]NMS, read-out: Receptor Binding Assay Ki (nM) M 3): 94 nM | Ki (M3 muscarinic receptor; [1]): 94 nM | Kb (isolated rat bladder; [2]): 27.5 nM | Kb (isolated rat bladder; [3]): 26.9 nM | Ki (M2 muscarinic receptor; M2 Ki (nm)): 2260 nM | Ki (M2 muscarinic receptor; Receptor Binding Assay Ki (nM) M2): 2260 nM

CC(C)(C)OC(=O)N(CCCCOC(=O)C(O)(c1ccc(F)cc1)c1ccc(F)cc1)C1C2CNCC21 (stereo not drawn) [Compound No. 95, (1α,5α,6α)-4-[6-N-(3-azabicyclo[3.1.0]hexyl)]-N-(tert-butyloxycarbonyl)butyl-1-[2-hydroxy-2,2-bis-(4-fluorophenyl)]acetate]
Ki (M3 muscarinic receptor; [4]): > 1000 nM | Ki (M2 muscarinic receptor; [5]): > 1000 nM

Cc1cccc(N2CC3C(C2)C3NC(=O)C(O)(c2ccccc2)C2CCCC2)n1 (centres unmarked) [Compound No. 69]
M3 Pki (M3 muscarinic receptor; [6]): 5.85 | Ki (M3 muscarinic receptor; [1]): 1420 nM | M2 pKi (M2 muscarinic receptor; Table III, rat heart, [3H]NMS): <5 | Ki (M2 muscarinic receptor; [7]): > 10000 nM

O=C(N[C@H]1[C@@H]2CNC[C@@H]21)C(O)(c1ccccc1)C1CC1 (stereo partly drawn) [Compound No. 92, (1α,5α,6α)-6-N-(3-azabicyclo-[3.1.0]hexyl)-2-cyclopropyl-2-hydroxy-2-phenylacetamide]
Ki (M3 muscarinic receptor; [4]): > 10000 nM | Ki (M2 muscarinic receptor; [5]): > 10000 nM

O=C(N[C@H]1[C@@H]2CN(CCc3ccc4c(c3)CCO4)C[C@@H]21)C(O)(c1ccccc1)C1CCCC1 (stereo partly drawn) [Compound No. 68, (1α,5α,6α)-6-N-(3-azabicyclo[3.1.0]hexyl-3-(2-(2,3-dihydrobenzofuran-5-yl)ethyl))-2-cyclopentyl-2-hydroxy-2-phenyl acetamide]
Ki (M3 muscarinic receptor; [1]): 108 nM | Ki (M2 muscarinic receptor; [7]): > 1000 nM

O=C(NC1C2CN(Cc3ccccc3)CC21)C(O)(c1ccccc1)C1CCCCCC1 (stereo not drawn) [Compound No. 72, (1α,5α,6α)-6-N-(3-azabicyclo[3.1.0]hexyl-3-benzyl)-2-cycloheptyl-2-hydroxy-2-phenyl acetamide]
Ki (M3 muscarinic receptor; Table III, rat submandibular gland, [3H]NMS, read-out: M3 Pki (converted)): 20.9 nM | Kb (isolated rat bladder; [3]): 66.1 nM | Ki (M2 muscarinic receptor; M2 Ki (nm)): 1530 nM

Cc1ccc(C(O)(C(=O)NC2C3CN(Cc4ccccc4)CC32)C2CCCCC2)cc1 (stereo not drawn) [Compound No. 50, (1α,5α,6α)-6-N-(3-azabicyclo[3.1.0]hexyl-3-benzyl)-2-cyclohexyl-2-hydroxy-2-(4-methylphenyl)acetamide]
Ki (M3 muscarinic receptor; [1]): 1200 nM | Kb (isolated rat bladder; [3]): 138 nM | Ki (M2 muscarinic receptor; [7]): > 1000 nM

O=C(N[C@H]1[C@@H]2CN(Cc3ccccc3)C[C@@H]21)C(O)(c1ccccc1)C1CCCC1 (some centres unmarked) [Compound No. 64]
Ki (M3 muscarinic receptor): 68 nM | Kb (isolated rat bladder; [3]): 27.5 nM | Ki (M2 muscarinic receptor; [7]): 3000 nM | Ki (M2 muscarinic receptor; Table III, rat heart, [3H]NMS, read-out: M2 pKi (converted)): 2510 nM

CC(C)(C)c1ccc(C(O)(C(=O)NC2C3CN(Cc4ccccc4)CC32)C2CCCCC2)cc1 (stereo not drawn) [Compound No. 55, (1α,5α,6α)-6-N-(3-azabicyclo[3.1.0]hexyl-3-benzyl)-2-cyclohexyl-2-hydroxy-2-(4-tertbutylphenyl)acetamide]
Ki (M3 muscarinic receptor; [1]): 380 nM | Ki (M2 muscarinic receptor; [7]): > 1000 nM

O=C(NC1C2CN(Cc3ccc(Br)cc3)CC21)C(O)(c1ccccc1)C1CCCCC1 (stereo not drawn) [Compound No. 24, (1α,5α,6α)-6-N-(3-azabicyclo[3.1.0]hexyl-3-(4-bromobenzyl))-2-cyclohexyl-2-hydroxy-2-phenyl acetamide]
Ki (M3 muscarinic receptor; [1]): 490 nM | Kb (isolated rat bladder; [3]): 3800 nM | Ki (M2 muscarinic receptor; [7]): > 1000 nM

COc1ccc(C(O)(C(=O)NC2C3CNCC32)C2CCCCC2)cc1 (stereo not drawn) [Compound No. 87, (1α,5α,6α)-6-N-(3-azabicyclo-[3.1.0]hexyl)-2-cyclohexyl-2-hydroxy-2-(4-methyoxyphenyl)acetamide]
Ki (M3 muscarinic receptor; [4]): > 1000 nM | Ki (M2 muscarinic receptor; [5]): > 1000 nM

O=C(NC1C2CN(Cc3c(F)cccc3F)CC21)C(O)(c1ccccc1)C1CCCCC1 (stereo not drawn) [Compound No. 25, (1α,5α,6α)-6-N-(3-azabicyclo[3.1.0]hexyl-3-(2,6-difluorobenzyl))-2-cyclohexyl-2-hydroxy-2-phenyl acetamide]
Ki (M3 muscarinic receptor; [1]): 1700 nM | Kb (isolated rat bladder; [3]): 288 nM | Ki (M2 muscarinic receptor; [7]): > 1000 nM

O=C(NC1C2CNCC21)C(O)(c1ccccc1)C1CCCC1 (stereo not drawn) [Compound No. 89, (1α,5α,6α)-6-N-(3-azabicyclo-[3.1.0]hexyl)-2-cyclopentyl-2-hydroxy-2-phenylacetamide]
Ki (M3 muscarinic receptor; [4]): > 1000 nM | Ki (M2 muscarinic receptor; [5]): > 1000 nM

O=C(N[C@H]1[C@@H]2CNC[C@@H]21)C(O)(c1ccccc1)C1CCC1 (stereo partly drawn) [Compound No. 91, (1α,5α,6α)-6-N-(3-azabicyclo[3.1.0]hexyl)-2-cyclobutyl-2-hydroxy-2-phenylacetamide]
Ki (M3 muscarinic receptor; [4]): 2750 nM | Ki (M2 muscarinic receptor; [5]): 100000 nM

CCCOC(C(=O)OCCCCN(C(=O)OC(C)(C)C)C1C2CNCC21)(c1ccc(F)cc1)c1ccc(F)cc1 (stereo not drawn) [Compound No. 96, (1α,5α,6α)-4-[6-N-(3-azabicyclo-[3.1.0]hexyl)]-N-(tert-butyloxycarbonyl)butyl-1-[2-propyloxy-2,2-bis-(4-fluorophenyl)]acetate]
Ki (M3 muscarinic receptor; [4]): > 1000 nM | Ki (M2 muscarinic receptor; [5]): > 1000 nM

CCN(CC)CC#CCOC(=O)C(O)(c1ccccc1)C1CCCCC1 (centres unmarked) [Oxybutynin, oxybutynin, reference compound]
Kb (isolated rat bladder; [2]): 2 nM

O=C(NC1C2CN(CCc3ccc4c(c3)OCO4)CC21)C(O)(c1ccccc1)C1CCCCC1 (stereo not drawn) [Compound No. 29, (1α,5α,6α)-6-N-(3-azabicyclo[3.1.0]hexyl-3-(2-(3,4-methylenedioxyphenyl)ethyl))-2-cyclohexyl-2-hydroxy-2-phenyl acetamide]
Ki (M3 muscarinic receptor; [1]): 97 nM | Ki (M2 muscarinic receptor; [7]): > 1000 nM

O=C(NC1C2CN(CCc3ccc4c(c3)CCO4)CC21)C(O)(c1ccccc1)C1CCCCC1 (stereo not drawn) [Compound No. 28, (1α,5α,6α)-6-N-(3-azabicyclo[3.1.0]hexyl-3-(2-(2,3-dihydrobenzofuran-5-yl)ethyl))-2-cyclohexyl-2-hydroxy-2-phenyl acetamide]
Ki (M3 muscarinic receptor; [1]): 150 nM | Ki (M2 muscarinic receptor; [7]): > 1000 nM

COC(C(=O)NC1C2CNCC21)(c1ccccc1)C1CCCCC1 (stereo not drawn) [Compound No. 98, (1α,5α,6α)-6N-(3-azabicyclo-[3.1.0]hexyl)-2-cyclohexyl-2-methoxy-2-phenyl acetamide]
Ki (M3 muscarinic receptor; [4]): > 1000 nM | Ki (M2 muscarinic receptor; [5]): > 1000 nM

O=C(N[C@H]1[C@@H]2CNC[C@@H]21)C(c1ccccc1)c1ccccc1 [Compound No. 97, (1α,5α,6α)-6N-(3-azabicyclo-[3.1.0]hexyl)-2,2-diphenyl acetamide]
Ki (M3 muscarinic receptor; [4]): > 1000 nM | Ki (M2 muscarinic receptor; [5]): > 1000 nM

Cc1ccc(O)c([C@H](CCN(C(C)C)C(C)C)c2ccccc2)c1 [Tolterodine, tolterodine, reference compound]
Kb (isolated rat bladder; Rattus norvegicus, read-out: Functional Assay KB (nM)): 2 nM | Kb (isolated rat bladder; Rattus norvegicus, read-out: Rat Bladder pKB (converted)): 1e+07 nM

O=C(NC1C2CN(CCc3ccc4occc4c3)CC21)C(O)(c1ccccc1)C1CCCCC1 (stereo not drawn) [Compound No. 31, (1α,5α,6α)-6-N-(3-azabicyclo[3.1.0]hexyl-3-(2-(benzofuran-5-yl)ethyl))-2-cyclohexyl-2-hydroxy-2-phenyl acetamide]
Ki (M3 muscarinic receptor; [1]): 233 nM | Ki (M2 muscarinic receptor; [7]): 1590 nM

O=C(N[C@H]1[C@@H]2CNC[C@@H]21)C(O)(c1ccccc1)C1CCCCCC1 (stereo partly drawn) [Compound No. 90, (1α,5α,6α)-6-N-(3-azabicyclo[3.1.0]hexyl)-2-cycloheptyl-2-hydroxy-2-phenylacetamide]
Ki (M3 muscarinic receptor; [4]): 363 nM | Ki (M2 muscarinic receptor; [5]): > 1000 nM

O=C(Cc1ccc2c(c1)CCO2)N1CC2C(C1)C2NC(=O)C(O)(c1ccccc1)C1CCCC1 (stereo not drawn) [Compound No. 70, (1α,5α,6α)-6-N-(3-azabicyclo[3.1.0]hexyl-3-(1-(2,3-dihydrobenzofuran-5-yl)acetyl))-2-cyclopentyl-2-hydroxy-2-phenyl acetamide]
M3 Pki (M3 muscarinic receptor; [6]): 6.12 | Ki (M3 muscarinic receptor; [1]): 750 nM | M2 pKi (M2 muscarinic receptor; Table III, rat heart, [3H]NMS): <5 | Ki (M2 muscarinic receptor; [7]): > 10000 nM

Cc1ccc(C(O)(C(=O)N[C@H]2[C@@H]3CNC[C@@H]32)C2CCCCC2)cc1 (stereo partly drawn) [Compound No. 88, (1α,5α,6α)-6-N-(3-azabicyclo-[3.1.0]hexyl)-2-cyclohexyl-2-hydroxy-2-(4-methylphenyl)acetamide]
Ki (M3 muscarinic receptor; [4]): > 1000 nM | Ki (M2 muscarinic receptor; [5]): > 1000 nM

O=C(NC1C2CNCC21)C(O)(c1ccc(F)cc1)C1CCCCC1 (stereo not drawn) [Compound No. 86, (1α,5α,6α)-6-N-(3-azabicyclo-[3.1.0]hexyl)-2-cyclohexyl-2-hydroxy-2-(4-Fluorophenyl)acetamide]
Ki (M3 muscarinic receptor; [4]): > 1000 nM | Ki (M2 muscarinic receptor; [5]): > 1000 nM

O=C(Cc1ccc2c(c1)CCO2)N1CC2C(C1)C2NC(=O)C(O)(c1ccccc1)C1CCCCC1 (stereo not drawn) [Compound No. 30, (1α,5α,6α)-6-N-(3-azabicyclo[3.1.0]hexyl-3-(1-(2,3-dihydrobenzofuran-5-yl)acetyl))-2-cyclohexyl-2-hydroxy-2-phenyl acetamide]
M3 Pki (M3 muscarinic receptor; [6]): 6.08 | Ki (M3 muscarinic receptor; [1]): 833 nM | M2 pKi (M2 muscarinic receptor; Table III, rat heart, [3H]NMS): <5

O=C(N[C@H]1[C@@H]2CNC[C@@H]21)C(O)(c1ccccc1)C1CCCCC1 (stereo partly drawn) [Compound No. 85, (1α,5α,6α)-6-N-(3-azabicyclo[3.1.0]hexyl)-2-cyclohexyl-2-hydroxy-2-phenylacetamide]
Ki (M3 muscarinic receptor; [4]): > 1000 nM | Ki (M2 muscarinic receptor; [5]): > 1000 nM
